According to BindingDB's records for patent US20240239813 (Risen (Suzhou) Pharma Tech Co., 2024):

Target: GTPase KRas [G12D] (Homo sapiens, UniProt P01116, G12D)
Assay: KRAS Binding Assay
Experimental: The ability of a test compound to bind to KRASG12D was measured by using an HTRF KRASG12D GTP Binding Kit (Cisbio, 63ADK000CB27PEG). […] 5 μL of compound solution was added to each well after serial dilution, followed by addition of 5 μL of GDP (50 nM) solution. After 30 minutes incubation at room temperature, 1×6His Eu cryptate antibody solution and GTP-Red tracer were added to the plate, then incubated for another 30 minutes. The HTRF signal was measured with a VICTOR Nivo multimode plate reader according to the manufacturer's instructions.

Sequence of GTPase KRas [G12D] (P01116 whole entry G12D): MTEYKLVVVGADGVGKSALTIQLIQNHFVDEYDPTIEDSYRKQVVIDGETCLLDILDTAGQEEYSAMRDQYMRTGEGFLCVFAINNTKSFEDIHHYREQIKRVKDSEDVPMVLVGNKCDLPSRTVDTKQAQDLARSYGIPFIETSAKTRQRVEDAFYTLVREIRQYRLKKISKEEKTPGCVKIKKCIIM

Structure (SMILES) | IC50 [nM]
CCc1c(F)ccc2cc(O)cc(-c3ncc4c(N5[C@@H]6CC[C@H]5C[C@@H](O)C6)nc(OC[C@@]56CCCN5C[C@H](F)C6)nc4c3F)c12 [US20240239813, Compound 10] | 881
CCc1c(F)ccc2cc(O)cc(-c3ncc4c(N5[C@@H]6CC[C@H]5C[C@H](O)C6)nc(OC[C@@]56CCCN5C[C@H](F)C6)nc4c3F)c12 [US20240239813, Compound 11] | > 1000
CCc1c(F)ccc2cc(OC(=O)C(C)C)cc(-c3ncc4c(N5CCC[C@]6(CCO6)C5)nc(OCC5(CN(C)C)CC5)nc4c3F)c12 [US20240239813, Compound 22a] | > 1000
CCc1c(F)ccc2cc(OC(=O)N(C)C)cc(-c3ncc4c(N5CCC[C@]6(CCO6)C5)nc(OCC5(CN(C)C)CC5)nc4c3F)c12 [US20240239813, Compound 24a] | > 1000
CCc1c(F)ccc2cc(O)cc(-c3ncc4c(N5CCC(O)(CO)CC5)nc(OC[C@@]56CCCN5C[C@H](F)C6)nc4c3F)c12 [US20240239813, Compound 41] | > 1000

More lines, now with the values ahead:

IC50 [nM] | Structure (SMILES)
> 1000 | Oc1cc(-c2ncc3c(N4CCCC5(CCO5)C4)nc(OC[C@@]45CCCN4C[C@H](F)C5)nc3c2F)c2ccccc2c1 (some centres undefined) [US20240239813, Compound 8a]
> 1000 | CN(C)CC1(COc2nc(N3CCC[C@]4(CCO4)C3)c3cnc(-c4cc(N)ccc4-c4cccs4)c(F)c3n2)CC1 [US20240239813, Compound 17a]
> 1000 | CCc1c(F)ccc2cc(O)cc(-c3ncc4c(N5C[C@H](O)[C@@H](O)[C@H](O)[C@H]5CO)nc(OC[C@@]56CCCN5C[C@H](F)C6)nc4c3F)c12 [US20240239813, Compound 51]
> 1000 | Cc1ccc2[nH]ncc2c1-c1ncc2c(N3CCCC4(CCO4)C3)nc(OC[C@@]34CCCN3C[C@H](F)C4)nc2c1F (some centres undefined) [US20240239813, Compound 71]
